Measurements taken from patent US12508251B2, “CD4 mimic compound with anti-HIV activity” (NATIONAL UNIVERSITY CORPORATION KUMAMOTO UNIVERSITY, priority 2019, dated 2025).
Entries after “also recorded” stand apart in the source; their conditions may differ. Read-outs that look alike come from different tables or passages of the source.

Tests used:
HIV isolate (KP5mvcR) = assay: microbe, parasite or virus in culture; assay type: cell-based, HIV-1; details: for SI (selectivity index): CC50/IC50, TZM-bl cells, KP-5mvcR; for IC50: read-out: IC50 KP-5mvcR
Description: (§1) In this Example, TZM-bl cells (available from NIH AIDS Reagent Program (https://www.aidsreagent.org/Index.cfm)) were used for individual evaluations. TZM-bl cells have CD4/CCR5/CXCR4 on the surface and express luciferase when infected with HIV. In this manner, TZM-bl cells serve as indicator cells. In the cells, β-galactosidase gene linked to HIV-1 LTR sequence is integrated. When the cells are infected with HIV-1, the tat gene of HIV-1 expresses a transcriptional activator Tat, which acts on the promoter region of LTR to express β-galactosidase. When a substrate is added, enzymatic cleavage occurs to produce galactose and luciferin. Luciferin is oxidized by luciferase to generate chemiluminescence, which can be detected by a luminometer to determine the number of cells infected with HIV-1.
2) IC50 (Calculation of Anti-HIV Activity)
After each compound was serially diluted, TZM-bl cells (1×10^4) and 100TCID50 of HIV isolate (KP5mvcR) were added, and then, cultured for 48 hours. Thereafter, the cells were collected and a Luc reporter reagent was added. The amount of luminescence was measured to calculate the inhibition rate of infection (IC50). The HIV isolate (KP5mvcR) is an MVC resistant HIV clone, which was obtained by subjecting a clinical isolate KP-5 (YTA) to passage culture with PM1 CCR5 cells in the presence of MVC over 48 passages to obtain MVC resistant KP-5Env, which was inserted into NL43 vector (Yoshimura K, et al., J. Gen. Virol., 95, 1816-1826, 2014).

[1] = Cytotoxicity (CC50) in TZM-bl cells, luminescence (CTG); assay type: cell-based; details: human
Description: as §1, with “([…].org/Index.cfm))” for “(https://www.aidsreagent.org/Index.cfm))”, “HIV-1. […] After each compound was serially diluted, TZM-bl cells (1×10^4) were added, cultured for 48 hours and collected. A Luc reporter reagent was added and the amount of luminescence (reagent: CTG) was measured […].” for “HIV-1.”

TZM-bl cells = assay: as above; assay type: cell-based; details: TZM-bl cells, cultured for 48 hours
Description: as §1, with “([…].org/Index.cfm))” for “(https://www.aidsreagent.org/Index.cfm))”, “HIV-1. […] After each compound was serially diluted, TZM-bl cells (1×10^4) were added, cultured for 48 hours and collected. A Luc reporter reagent was added and the amount of luminescence (reagent: CTG) was measured […].” for “HIV-1.”

[2] = Stability on incubation with human liver microsomes, HPLC; assay type: in vitro ADME; details: 60 minutes at 37° C., NADPH, NaPB pH 7.4
Experimental: More specifically, TKB-002 trifluoroacetate was dissolved in a 100 mM sodium phosphate buffer (NaPB, pH 7.4) to obtain a 0.3 mM solution. This solution (183 μL) was mixed with 20 mM NADPH (2 μL) in 100 mM NaPB (pH 7.4), and 5 μL of 20 mg/mL human liver microsome (Human Microsomes, 50 Donors (ThermoFisher Scientific, cat #: HMMCPL, Lot #: PL050E-A)) solution. After the mixture was pre-incubated at 37° C. for 5 minutes, 20 mM NADPH solution (10 μL) was added to the mixture, which was incubated while gently stirring for 60 minutes at 37° C.
Subsequently, 200 μL of ethyl acetate was added to the mixture to terminate the reaction. The mixture was stirred by a vortex mixer and centrifuged at 3,000 rpm for 5 minutes. The supernatant was filtered and ethyl acetate was removed with nitrogen gas.
To the mixture, 50 μL of MeCN containing 0.1% TFA was added and analysis was carried out by HPLC in the same conditions as in Reference Example 1 and Example 4.

[3] = Blood half-life after intravenous injection, blood concentration by HPLC; assay type: in vivo, Macaque monkey
Experimental: A Macaque monkey (MM616, body weight 8.00 kg) was intravenously injected with YIR-821 at a dose of 192 mg (10.1 mg/mL). A blood sample was taken from the monkey, 21, 39, 63, 91, 98, 113, 143, 201, 328 and 453 minutes later, and the concentration of YIR-821 in the blood was measured by HPLC.
HPLC conditions are as follows. • Measuring device: JASCO PU-2089 plus (JASCO Corporation, Ltd.) • Column: Cosmosil 5C18-ARII column (4.6×250 mm, Nacalai Tesque, Inc.) • Solvent A: H2O containing 0.1% (v/v) TFA • Solvent B: CH3CN containing 0.1% (v/v) TFA • Gradient: 20-50% solvent B in solvent A, 30 minutes • Flow rate: 1 cm^3/min • Detection: Detection at 260 nm-UV
In the same manner as in Reference Example 1, Macaque monkey (MM616, body weight 8.78 kg) was intravenously injected with TKB-002 trifluoroacetate obtained in Example 2 at a dose of 23.4 μmol (33.2 mg/20 mL). A blood sample was taken before, during and after administration (at a time point of 10 minutes, 37 minutes, 1 hour, 2.5 hours, 4.5 hours, 6.5 hours and 24 hours after administration). Blood concentration was measured by HPLC in the same conditions as in Reference Example 1.

[4] = In vitro decomposition releasing the alkyl or PEG chain in PBS; assay type: physicochemical; details: PBS of pH7.4 at 37° C.
Experimental: The compound obtained in Example 5 (YIS-527) has an alkyl chain bound to a side chain of YIR-821 via a —C(═O)O— group, and it is assumed that the compound is hydrolyzed in vitro and in vivo. Accordingly, in this Example, an alkyl chain released in vitro was measured.
With respect to compound (YIS-540) having a PEG chain bound to a side chain of YIR-821 via a —C(═O)O— group obtained in Example 6, the PEG chain released in vitro was measured in the same manner as in Example 7.

[5] = Human immunodeficiency virus 1, TZM-bl, 48 h
[6] = TZM-bl cells, 100TCID50 of KP5mvcR, 48 hours

| SMILES | SI (selectivity index) (HIV isolate (KP5mvcR)) | IC50 (HIV isolate (KP5mvcR); [5]) [µM] | CC50 at 48 h [1] [µM] | also measured |
| --- | --- | --- | --- | --- |
| O=C1Nc2ccc(Cl)cc2[C@@](C#CC2CC2)(C(F)(F)F)O1 [EFV, efavirenz, reference compound] | 6,829 | 0.0041 ± 0.00099 | – | CC50 at 48 h ([1]; TZM-bl cells, cultured for 48 hours, read-out: CC50): 28 ± 3.4 µM |
| CC1(C)CC(NC(=O)C(=O)Nc2ccc(Cl)cc2)CC(C)(C)N1 [NBD-556, reference compound] | – | – | – | IC50 (HIV isolate (KP5mvcR); [6]): 0.27 ± 0.052 µM; CC50 (TZM-bl cells): 177 ± 9.5 µM |
| COCCOCCOCCOCCOCCNC(=O)CCC(=O)N[C@@H](CCCNC(=N)N)C(=O)NCCN1CCC(NC(=O)C(=O)Nc2ccc(Cl)cc2)CC12CCCCC2 (stereo partly drawn) [TKB-001, N^1-((2S)-1-((2-(4-(2-((4-chlorophenyl)amino)-2-oxoacetamido)-1-azaspiro[5.5]undecan-1-yl)ethyl)amino)-5-guanidino-1-oxopentan-2-yl)-N4-(2,5,8,11,14-pentaoxahexadecan-16-yl)succinamide] | >769 | 0.13 ± 0.026 | > 100 | – |
| COCCOCCOCCOCCOCCOCCOCCOCCOCCOCCOCCOCCNC(=O)CCC(=O)N[C@@H](CCCNC(=N)N)C(=O)NCCN1CCC(NC(=O)C(=O)Nc2ccc(Cl)cc2)CC12CCCCC2 (stereo partly drawn) [TKB-002, N^1-((2S)-1-((2-(4-(2-((4-chlorophenyl)amino)-2-oxoacetamido)-1-azaspiro[5.5]undecan-1-yl)ethyl)amino)-5-guanidino-1-oxopentane-2-yl)-N^4-(2,5,8,11,14,17,20,23,26,29,32,35-dodecaoxaheptatriacontan-37-yl)succinamide] | >1,000 | < 0.1 | > 100 | stability in the presence of human liver microsomes (HPLC peak intensity) [2]: the intensity of the peak was the same as before incubation; also recorded: stable even in the presence of human liver microsomes; blood half-life relative to YIR-821 ([3]; Macaque monkey, intravenous injection): 3.48 times; half-life ([3]; blood, 23.4 μmol, Macaque monkey MM616, intravenous injection): 1.8 h |
| COCCOCCOCCOCCOCCOCCOCCOCCOCCOCCOCCOCCOCCOCCOCCOCCOCCOCCOCCOCCOCCOCCOCCOCCNC(=O)CCC(=O)N[C@@H](CCCNC(=N)N)C(=O)NCCN1CCC(NC(=O)C(=O)Nc2ccc(Cl)cc2)CC12CCCCC2 (stereo partly drawn) [TKB-003] | – | – | – | IC50 (HIV isolate (KP5mvcR); [6]): < 0.1 µM; CC50 (TZM-bl cells): 40 ± 14 µM |
| CCCCCCCCCCCCCCCCNC(=O)CCC(=O)OC(CCCNC(=N)N)C(=O)NCCN1CCC(NC(=O)C(=O)Nc2ccc(Cl)cc2)CC12CCCCC2 (stereo not drawn) [YIS-527, 1-((2-(4-(2-((4-chlorophenyl)amino)-2-oxoacetamido)-1-azaspiro[5.5]undecan-1-yl)ethyl)amino)-5-guanidino-1-oxopentan-2-yl 4-(hexadecylamino)-4-oxobutanoate] | 14 | 1.2 ± 0.11 | 17 ± 0.22 | decomposition releasing the alkyl or PEG chain [4]: decomposition reaction was observed |
| COCCOCCOCCOCCOCCNC(=O)CCC(=O)OC(CCCNC(=N)N)C(=O)NCCN1CCC(NC(=O)C(=O)Nc2ccc(Cl)cc2)CC12CCCCC2 (stereo not drawn) [YIS-540, 1-((2-(4-(2-((4-chlorophenyl)amino)-2-oxoacetamido)-1-azaspiro[5.5]undecan-1-yl)ethyl)amino)-5-guanidino-1-oxopentan-2-yl 18-oxo-2,5,8,11,14-pentaoxa-17-azahenicosan-21-oate] | 6412 | 0.017 ± 0.011 | 109 ± 8.2 | decomposition releasing the alkyl or PEG chain [4]: decomposition reaction was observed |
